The RepoRT retention time repository (doi:10.1016/j.aca.2019.02.001)

Assay: RP, Agilent ZORBAX Eclipse XDB-C18, 100 × 2.1 mm, 1.8 µm, 50 °C, 0.4 mL/min, estimated dead time 0.55 min; A: water + 0.1% formic acid; B: methanol; gradient (min/%B) 0/30 2/30 5/52 15/65 20/78 22.5/78 29/90 38/100
Conditions: stereoisomer not certain

| LC retention time [min] | Compound |
| --- | --- |
| 9.89 | O=C(O)c1cc(=O)c2cccc(O)c2[nH]1 |
| 28.8 | CCCCCC=CCC=CCCCCCCCC(=O)O |
| 9.8 | NCCCCNCCCN |
| 9.67 | CCC(=O)O |
| 17.1 | CC(C)CCC(=O)O |
| 14.5 | CCCCC(=O)O |
| 12.1 | COc1ccc2[nH]cc(CC(=O)O)c2c1 |
| 29.8 | CCCCCCCCCCCCCCCC(=O)O |
| 8.32 | O=C(O)c1cccnc1C(=O)O |
| 26.4 | CCCCCCCCCCCCC(=O)O |
| 20.5 | NC(Cc1ccc(O)cc1)C(=O)O (configuration not stated) |
| 12.2 | CC(=O)NCCc1c[nH]c2ccc(O)cc12 |
| 6.31 | NC(CS)C(=O)O (configuration not stated) |
| 33.4 | CCCCCCCCCCCCCCCCCCCCC(=O)O |
| 6.78 | CC(N)C(=O)O (configuration not stated) |
| 20.2 | CCCCC(CC)C(=O)O (configuration not stated) |
| 5.87 | NCCO |
| 26.2 | CC(CCC(=O)O)C1CCC2C3CCC4CC(O)CCC4(C)C3CCC12C (configuration not stated) |
| 25.2 | CC(CCC(=O)O)C1CCC2C3CCC4CC(O)CCC4(C)C3CC(O)C12C (configuration not stated) |
| 9.89 | NC(Cc1c[nH]c2ccccc12)C(=O)O (configuration not stated) |
| 24.9 | CC(CCC(=O)O)C1CCC2C3C(O)CC4CC(O)CCC4(C)C3CCC12C (configuration not stated) |
| 27.5 | CCC=CCC=CCC=CCC=CCC=CCCCC(=O)O |
| 11.9 | COc1cc2c(CCNC(C)=O)c[nH]c2cc1O |
| 9.21 | Nc1ccccc1C(=O)CC(N)C(=O)O (configuration not stated) |
| 17.4 | CCCCCC(=O)O |
| 31.5 | CCCCCCCCCCCCCCCCCC(=O)O |

| LC retention time [min] | Compound |
| --- | --- |
| 3.75 | NC(=O)CC(N)C(=O)O (configuration not stated) |
| 23 | CCCCCCCCC(=O)O |
| 17.6 | NCCCCN |
| 8.37 | O=C(O)C1CCCN1 (configuration not stated) |
| 17.4 | O=C(O)c1cc(=O)c2ccccc2[nH]1 |
| 19.7 | CCCCCCC(=O)O |
| 7.25 | O=C(O)CCCC(=O)C(=O)O |
| 3.02 | NC(N)=NCCCC(N)C(=O)O (configuration not stated) |
| 6.5 | NCCCNCCCCNCCCN |
| 4.45 | NC(=O)CCC(N)C(=O)O (configuration not stated) |
| 6.29 | CC(O)C(N)C(=O)O (configuration not stated) |
| 28.5 | CCC=CCC=CCC=CCC=CCC=CCC=CCCC(=O)O |
| 8.11 | CC(=O)O |
| 14 | CC(C)CC(=O)O |
| 32.1 | CCCCCCCCCCCCCCCCCCC(=O)O |
| 12.1 | O=C(O)C(O)Cc1c[nH]c2ccccc12 (configuration not stated) |
| 30.5 | CCCCCCCCC=CCCCCCCCC(=O)O |
| 20.6 | CCCCCC(C)C(=O)O (configuration not stated) |
| 34.2 | CCCCCCCCC=CCCCCCCCCCCCCCC(=O)O |
| 32.9 | CCCCCCCCC=CCCCCCCCCCCCC(=O)O |
| 34 | CCCCCCCCCCCCCCCCCCCCCC(=O)O |
| 5.14 | NC(CO)C(=O)O (configuration not stated) |
| 9.06 | CSCCC(N)C(=O)O (configuration not stated) |
| 11.4 | CCC(C)C(N)C(=O)O (configuration not stated) |
| 21.4 | CCCCCCCC(=O)O |
| 22.5 | CCCCC(C)CCC(=O)O (configuration not stated) |

| LC retention time [min] | Compound |
| --- | --- |
| 28.4 | CCCCCCCCCCCCCCC(=O)O |
| 21 | Nc1c(O)cccc1C(=O)CC(N)C(=O)O (configuration not stated) |
| 11.8 | NC(Cc1ccccc1)C(=O)O (configuration not stated) |
| 31.8 | CCCCCCCCC=CCCCCCCCCCC(=O)O |
| 24.2 | CC(CCC(=O)O)C1CCC2C3C(O)CC4CC(O)CCC4(C)C3CC(O)C12C (configuration not stated) |
| 27.9 | CCCCCCC=CCCCCCCCC(=O)O |
| 27.5 | CCC=CCC=CCC=CCCCCCCCC(=O)O |
| 16.7 | CCC(C)CC(=O)O (configuration not stated) |
| 11.4 | CC(C)C(=O)O |
| 15.7 | Nc1c(O)cccc1C(=O)O |
| 27.3 | CCCCCCCCCCCCCC(=O)O |
| 11.7 | CC(C)CC(N)C(=O)O (configuration not stated) |
| 5.85 | NCC(=O)O |
| 16.2 | NCCCCC(N)C(=O)O (configuration not stated) |
| 24.3 | CCCCCCCCCC(=O)O |
| 2.35 | NC(Cc1cnc[nH]1)C(=O)O (configuration not stated) |
| 15.5 | O=C(O)C(=O)Cc1c[nH]c2ccccc12 |
| 18.9 | CCCCC(C)C(=O)O (configuration not stated) |
| 25.6 | CCCCCCCCCCCC(=O)O |
| 28.7 | CCCCCC=CCC=CCC=CCC=CCCCC(=O)O |
| 9.34 | CC(C)C(N)C(=O)O (configuration not stated) |
| 13.4 | O=C(O)Cc1c[nH]c2ccccc12 |
| 12.1 | O=C(O)Cc1c[nH]c2ccc(O)cc12 |
| 11.8 | CCCC(=O)O |

| Compound | LC retention time [min] |
| --- | --- |
| NCCc1c[nH]c2ccccc12 | 13.4 |
